From patent US20250312323A1 (Cavion, Inc., priority 2018, published 2025)

Legend:
[1] = test system: patients with essential tremor; assay: T-CALM: TETRAS performance subscale, investigator rated
[2] = test system: patients with essential tremor; assay: T-CALM: Patient Global Impression of Change (PGIC); type: in vivo, human; conditions: for PGIC score (rescaled −3 to 3), LS mean (SE): ANCOVA
[3] = test system: patients with essential tremor; assay: T-CALM: Kinesia ONE accelerometry score; type: in vivo, human
From the text: Kinesia One platform is deployed in T-CALM as a digital marker of tremor severity. Kinesia One is FDA cleared for monitoring Parkinson's motor symptom severity with only limited data on assessment of tremor in ET patients. The algorithmically derived score was developed primarily in Parkinson's disease algorithms and has limited validation in ET (see, e.g., Hoffman et al., 2011 Conf Proc IEEE Eng Med Biol Soc. 2011:4378-81). The Kinesia One device is placed on the index finger of each ET patient and worn in the clinic after completion of the TETRAS Performance subscale. Four tasks are performed by the patient on the left and right sides to assess resting, postural, kinetic and lateral wing beating tremor. The Kinesia One score change in score from baseline to day 28 is evaluated as a secondary efficacy endpoint. The Kinesia One data is also utilized for exploratory analysis of efficacy on the change from baseline to day 15 for accelerometry score and for change from baseline on amplitude measures for days 15 and 28. Consistent finger sensor placement and consistent task execution are critical factors for valid Kinesia One scores.
(§1) Both sets of scores were statistically analyzed.

[4] = test system: patients with essential tremor; assay: T-CALM: PK/PD, Cmin exposure vs change in TETRAS-PS (Hill equation); type: in vivo, human; conditions: steady state, estimated
From the text: Evaluation of the relationship between the Cmin exposure level of CX-8998 and response (E) as measured by change from baseline in TETRAS-PS using the Hill Equation: […]
Pharmacodynamic variables (Response) evaluated included change from baseline in TETRAS performance subscale, TETRAS activities of daily living, TETRAS total score.

[5] = Pharmacokinetics of CX-8998 immediate release capsules in healthy volunteers (Studies PN001, PN002); type: in vivo, human; conditions: 2-18 mg dose range
[6] = test system: patients with essential tremor; assay: T-CALM: electrocardiogram, vital signs, clinical laboratory, examinations; type: in vivo, human
Procedure: Electrocardiogram results were calculated as the average of the triplicate records at each time point. Baseline was defined as the mean of the triplicate values obtained pre-dose at Day 1. If this value was not available, the mean of the triplicate records obtained at screening were used.
Safety procedures involved collection of all TEAEs (treatment-emergent adverse events) coded into the Medical Dictionary for Regulatory Activities (MedDRA) version 20. Adverse events were classified by maximum severity, drug-related adverse events, serious adverse events, and adverse events leading to patient discontinuation.

Solubility of CX-8998 = type: physicochemical; conditions: at higher pH values
From the text: Sustained release (SR) beads were developed with multiple types of sustained release and enteric coatings. Some SR matrix beads were developed using typical polymers (e.g., hydroxypropyl methylcellulose or carbopol) to achieve sustained release. Some SR matrix beads were developed using pH independent sustained release osmotic pumps to achieve zero order release from the tablet. […] Some SR matrix beads were developed using Eudragit RS/RL30D coating of IR beads to achieve an approach that depends on slow erosion of coating thereby sustaining the release of the drug from an IR matrix.

[7] = test system: patients with essential tremor; assay: T-CALM: TETRAS total score; type: in vivo, human
Procedure: The Total TETRAS score was defined as the sum of the TETRAS performance subscale total score and the TETRAS ADL subscale score. TETRAS TOTAL score combines both patient reported outcome and objective measurement of tremor amplitude in a single score. Analyses of the TETRAS-ADL was conducted using the same type of ANCOVA model as described for the TETRAS-PS, using two-sided tests at the alpha=0.05 level of significance (FIG. 3 and Table 3).
as §1

[8] = Day 15, change from baseline, N = 39
[9] = Day 28, change from baseline, N = 37

dose proportionality of plasma profiles [5]: dose proportional
solubility (Solubility of CX-8998): poor solubility
SMILES: CC(C)c1ccc(CC(=O)N[C@H](C)c2ccc(OCC(F)(F)F)cn2)cc1 [CX-8998]
TETRAS-PS Score, subjects with 0 change, n (%) [1, 8]: 2 (5.1%)
TETRAS-PS Score, subjects with >0 to 1 point improvement, n (%) [1, 8]: 3 (7.7%)
TETRAS-PS Score, subjects with >0 to 1 point worsening, n (%) [1, 8]: 2 (5.1%)
TETRAS-PS Score, subjects with >1 to 2.5 point improvement, n (%) [1, 8]: 4 (10.3%)
TETRAS-PS Score, subjects with >1 to 2.5 point worsening, n (%) [1, 8]: 5 (12.8%)
TETRAS-PS Score, subjects with >2.5 to 5 point improvement, n (%) [1, 8]: 10 (25.6%)
TETRAS-PS Score, subjects with >2.5 to 5 point worsening, n (%) [1, 8]: 2 (5.1%)
TETRAS-PS Score, subjects with >5 to 10 point improvement, n (%) [1, 8]: 8 (20.5%)
TETRAS-PS Score, subjects with >5 to 10 point worsening, n (%) [1, 8]: 0
TETRAS-PS Score, subjects with >10 point improvement, n (%) [1, 8]: 3 (7.7%)
TETRAS-PS Score, subjects with >10 point worsening, n (%) [1, 8]: 0
LS mean (±SE) change from baseline in TETRAS-PS scored by investigators (in person), primary endpoint analysis ([1]; Day 28): −4.8±0.80
Subjects with improvement of at least 5 points by TETRAS-PS score, number ([1]; Day 28, N 37): 16
Subjects with improvement of at least 5 points by TETRAS-PS score, percent ([1]; Day 28, N 37): (43.2%)
TETRAS-PS Score, subjects with 0 change, n (%) [1, 9]: 1 (2.6%)
TETRAS-PS Score, subjects with >0 to 1 point improvement, n (%) [1, 9]: 6 (15.4%)
TETRAS-PS Score, subjects with >0 to 1 point worsening, n (%) [1, 9]: 2 (5.1%)
TETRAS-PS Score, subjects with >1 to 2.5 point improvement, n (%) [1, 9]: 5 (12.8%)
TETRAS-PS Score, subjects with >1 to 2.5 point worsening, n (%) [1, 9]: 1 (2.6%)
TETRAS-PS Score, subjects with >2.5 to 5 point improvement, n (%) [1, 9]: 11 (28.2%)
TETRAS-PS Score, subjects with >2.5 to 5 point worsening, n (%) [1, 9]: 1 (2.6%)
TETRAS-PS Score, subjects with >5 to 10 point improvement, n (%) [1, 9]: 8 (20.5%)
TETRAS-PS Score, subjects with >5 to 10 point worsening, n (%) [1, 9]: 0
TETRAS-PS Score, subjects with >10 point improvement, n (%) [1, 9]: 4 (10.3%)
TETRAS-PS Score, subjects with >10 point worsening, n (%) [1, 9]: 0
PGIC Category 0 No change, patients, number (%) ([2]; Day 15): 11 (28%)
PGIC Category 1 Minimally improved, patients, number (%) ([2]; Day 15): 17 (44%)
PGIC Category 2 Much improved, patients, number (%) ([2]; Day 15): 8 (21%)
PGIC Category 3 Very much improved, patients, number (%) ([2]; Day 15): 1 (3%)
PGIC Category −1 Minimally worse, patients, number (%) ([2]; Day 15): 1 (3%)
PGIC Category −2 Much worse, patients, number (%) ([2]; Day 15): 1 (3%)
PGIC Category −3 Very much worse, patients, number (%) ([2]; Day 15): 0
mean PGIC score vs placebo ([2]; Day 15): significantly greater (improved)
PGIC Score, subjects 0 - no change, n (%) ([2]; Day 15, N = 39): 11 (28%)
PGIC Score, subjects 1 - minimally improved, n (%) ([2]; Day 15, N = 39): 17 (44%)
PGIC Score, subjects 2 - much improved, n (%) ([2]; Day 15, N = 39): 8 (21%)
PGIC Score, subjects 3 - very much improved, n (%) ([2]; Day 15, N = 39): 1 (3%)
PGIC Score, subjects −1 - minimally worse, n (%) ([2]; Day 15, N = 39): 1 (3%)
PGIC Score, subjects −2 - much worse, n (%) ([2]; Day 15, N = 39): 1 (3%)
PGIC Score, subjects −3 - very much worse, n (%) ([2]; Day 15, N = 39): 0
PGIC score (rescaled −3 to 3), LS mean (SE) ([2]; Day 15): 0.9 (0.17)
PGIC Category 0 No change, patients, number (%) ([2]; Day 28): 14 (36%)
PGIC Category 1 Minimally improved, patients, number (%) ([2]; Day 28): 10 (26%)
PGIC Category 2 Much improved, patients, number (%) ([2]; Day 28): 7 (18%)
PGIC Category 3 Very much improved, patients, number (%) ([2]; Day 28): 3 (8%)
PGIC Category −1 Minimally worse, patients, number (%) ([2]; Day 28): 1 (3%)
PGIC Category −2 Much worse, patients, number (%) ([2]; Day 28): 1 (3%)
PGIC Category −3 Very much worse, patients, number (%) ([2]; Day 28): 1 (3%)
mean PGIC score vs placebo ([2]; Day 28): trended toward significant improvement
PGIC Score, subjects 0 - no change, n (%) ([2]; Day 28, head N = 39): 14 (36%)
PGIC Score, subjects 1 - minimally improved, n (%) ([2]; Day 28, head N = 39): 10 (26%)
PGIC Score, subjects 2 - much improved, n (%) ([2]; Day 28, head N = 39): 7 (18%)
PGIC Score, subjects 3 - very much improved, n (%) ([2]; Day 28, head N = 39): 3 (8%)
PGIC Score, subjects −1 - minimally worse, n (%) ([2]; Day 28, head N = 39): 1 (3%)
PGIC Score, subjects −2 - much worse, n (%) ([2]; Day 28, head N = 39): 1 (3%)
PGIC Score, subjects −3 - very much worse, n (%) ([2]; Day 28, head N = 39): 1 (3%)
PGIC score (rescaled −3 to 3), LS mean (SE) ([2]; Day 28): 0.8 (0.19)
Kinesia ONE Total Score change from baseline, LS mean difference from placebo (95% CI) ([3]; Day 15, ANCOVA): −0.4 (−1.7, 0.9)
Kinesia ONE score, difference vs placebo ([3]; Day 15 and Day 28): did not show a significant difference
Emax, change from baseline in TETRAS-PS vs Cmin (Hill equation) [4]: approximately −4.1
clinical laboratory parameters vs placebo [6]: No clinically meaningful differences
vital signs, ECG, neurological and physical examinations [6]: No clinically significant abnormalities
Subjects with improvement of at least 5 points by TETRAS Total score, number ([7]; Day 15, N 39): 22
TETRAS Total Score, subjects with 0 change, n (%) [7, 8]: 1 (2.6%)
TETRAS Total Score, subjects with >0 to 1 point improvement, n (%) [7, 8]: 2 (5.1%)
TETRAS Total Score, subjects with >0 to 1 point worsening, n (%) [7, 8]: 2 (5.1%)
TETRAS Total Score, subjects with >1 to 2.5 point improvement, n (%) [7, 8]: 2 (5.1%)
TETRAS Total Score, subjects with >1 to 2.5 point worsening, n (%) [7, 8]: 1 (2.6%)
TETRAS Total Score, subjects with >2.5 to 5 point improvement, n (%) [7, 8]: 7 (17.9%)
TETRAS Total Score, subjects with >2.5 to 5 point worsening, n (%) [7, 8]: 4 (10.3%)
TETRAS Total Score, subjects with >5 to 10 point improvement, n (%) [7, 8]: 6 (15.4%)
TETRAS Total Score, subjects with >5 to 10 point worsening, n (%) [7, 8]: 0
TETRAS Total Score, subjects with >10 point worsening, n (%) [7, 8]: 0
TETRAS Total Score, subjects with >10 to 20 point improvement, n (%) [7, 8]: 12 (30.8%)
TETRAS Total Score, subjects with >20 point improvement, n (%) [7, 8]: 2 (5.1%)
total TETRAS score with TETRAS-PS rated by independent video raters, vs placebo ([7]; Day 15 or 28): not statistically significant
Subjects with improvement of at least 5 points by TETRAS Total score, number ([7]; Day 28, N 37): 21
TETRAS Total Score, subjects with 0 change, n (%) [7, 9]: 0
TETRAS Total Score, subjects with >0 to 1 point improvement, n (%) [7, 9]: 2 (5.4%)
TETRAS Total Score, subjects with >0 to 1 point worsening, n (%) [7, 9]: 4 (10.8%)
TETRAS Total Score, subjects with >1 to 2.5 point improvement, n (%) [7, 9]: 2 (5.4%)
TETRAS Total Score, subjects with >1 to 2.5 point worsening, n (%) [7, 9]: 2 (5.4%)
TETRAS Total Score, subjects with >2.5 to 5 point improvement, n (%) [7, 9]: 5 (13.5%)
TETRAS Total Score, subjects with >2.5 to 5 point worsening, n (%) [7, 9]: 1 (2.7%)
TETRAS Total Score, subjects with >5 to 10 point improvement, n (%) [7, 9]: 7 (18.9%)
TETRAS Total Score, subjects with >5 to 10 point worsening, n (%) [7, 9]: 0
TETRAS Total Score, subjects with >10 point worsening, n (%) [7, 9]: 0
TETRAS Total Score, subjects with >10 to 20 point improvement, n (%) [7, 9]: 8 (21.6%)
TETRAS Total Score, subjects with >20 point improvement, n (%) [7, 9]: 5 (13.5%)
